For orientation: IC50 means the concentration needed to halve the response being measured. For orientation: logP means a log measure of how a compound divides between an organic and an aqueous phase. A lower logP goes with lower lipophilicity. The EC50 is the concentration that produces a half-maximal response. For orientation: Ki means a dissociation constant, usually derived from enzyme kinetics or from competition with a known ligand.

T2 sequence (P25779 whole entry): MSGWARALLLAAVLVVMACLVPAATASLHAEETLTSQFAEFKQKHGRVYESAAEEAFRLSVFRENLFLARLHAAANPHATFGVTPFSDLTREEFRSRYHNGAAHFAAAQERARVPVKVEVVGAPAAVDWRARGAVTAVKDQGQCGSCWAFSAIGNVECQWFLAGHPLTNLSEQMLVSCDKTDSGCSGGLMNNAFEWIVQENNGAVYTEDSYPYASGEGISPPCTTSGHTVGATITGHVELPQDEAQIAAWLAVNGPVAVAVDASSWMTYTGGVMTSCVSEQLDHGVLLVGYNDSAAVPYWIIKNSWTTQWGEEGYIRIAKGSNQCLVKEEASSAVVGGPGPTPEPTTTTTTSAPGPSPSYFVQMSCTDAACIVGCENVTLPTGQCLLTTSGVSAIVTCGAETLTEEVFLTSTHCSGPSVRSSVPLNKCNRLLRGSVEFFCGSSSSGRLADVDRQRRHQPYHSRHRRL

The target in the first data set is T1, Rhodesain (Trypanosoma brucei rhodesiense, UniProt Q95PM0). Put plainly: Inhibition of Trypanosoma brucei rhodesiense rhodesain.
T1 sequence (Q95PM0 whole entry): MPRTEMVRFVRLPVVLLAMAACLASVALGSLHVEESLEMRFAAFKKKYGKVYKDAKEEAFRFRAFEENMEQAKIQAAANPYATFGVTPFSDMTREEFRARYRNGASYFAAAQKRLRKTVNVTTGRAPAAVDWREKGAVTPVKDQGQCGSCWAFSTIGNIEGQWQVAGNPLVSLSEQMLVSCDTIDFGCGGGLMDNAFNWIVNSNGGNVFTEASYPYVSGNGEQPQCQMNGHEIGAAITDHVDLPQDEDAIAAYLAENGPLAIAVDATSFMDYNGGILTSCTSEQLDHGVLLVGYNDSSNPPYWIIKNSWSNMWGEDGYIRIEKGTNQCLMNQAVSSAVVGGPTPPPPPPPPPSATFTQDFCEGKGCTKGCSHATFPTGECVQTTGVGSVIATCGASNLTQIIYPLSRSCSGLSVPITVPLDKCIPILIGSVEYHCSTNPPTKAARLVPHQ
Details: not given
Consider `Clc1ccc2c(NCCN3CCOCC3)ccnc2c1`, for which half-maximal inhibition (IC50) was put at 61000 nM.

`OCCNc1ccnc2cc(Cl)ccc12`: the 50% inhibitory concentration (IC50) is 58000 nM.

In the case of `O=C(CNc1ccnc2cc(Cl)ccc12)N1CCOCC1`, the midpoint of inhibition, the IC50, lay at 48000 nM.

In turn, `CCOC(=O)/C=C/[C@@H](O)[C@H](CCc1ccccc1)NC(=O)[C@H](Cc1ccccc1)NC(=O)OCc1ccccc1` registered a half-inhibitory concentration (IC50) of 20000 nM.

On to `CCCNc1ccnc2cc(Cl)ccc12`, for which the IC50 is 34200 nM.

Compound `OCCCNc1ccnc2cc(Cl)ccc12` registered a half-maximal inhibitory concentration (IC50) of 72000 nM.

Take `CCOC(=O)/C=C\C(=O)[C@H](CC(C)C)NC(=O)[C@H](Cc1ccccc1)NC(=O)OCc1ccccc1`: 16.4 nM corresponded to half-maximal inhibition (IC50).

Regarding `Clc1ccc2c(NCc3ccccc3)ccnc2c1`, the half-maximal inhibitory concentration (IC50) was 34000 nM.

In the case of `NCCNc1ccnc2cc(Cl)ccc12`, the IC50 is 126000 nM.

The subject of a further data set is Trypanosoma cruzi. Put plainly: Antitrypanosomal activity against Trypanosoma cruzi assessed as reduction in parasite growth. It counts as functional, organism-based.
Details: not given
For the compound `Clc1ccc2c(NCCN3CCOCC3)ccnc2c1`, the 50% inhibitory concentration (IC50) is greater than 250000 nM.

Take `OCCN1CCN(c2ccnc3cc(Cl)ccc23)CC1`: the IC50 was greater than 250000 nM.

For `NCCCNc1ccnc2cc(Cl)ccc12`, the IC50 is greater than 250000 nM.

For the compound `OCCNc1ccnc2cc(Cl)ccc12`, the IC50 is greater than 250000 nM.

With `O=C(CNc1ccnc2cc(Cl)ccc12)N1CCOCC1`, the IC50 is greater than 250000 nM.

`OCCCNc1ccnc2cc(Cl)ccc12`: the half-inhibitory concentration (IC50) was 6500 nM.

As to `O=C(COCc1ccccc1Br)NCCc1nc2ccccc2[nH]1`, the IC50 was 34600 nM.

System in another data set: not listed separately
Put plainly: Lipophilicity, logP of compound. It counts as physicochemical. To be noted: octanol/water.
Compound `CCCCC(C(=O)COc1c(F)c(F)cc(F)c1F)n1cc([C@@](C)(NCc2ccc3ncccc3c2)C(C)C)nn1` (stereo not given in full) yielded a lipophilicity (logP) of 5.8.

The subject of a further data set is Trypanosoma brucei. Put plainly: Antitrypanosomal activity against Trypanosoma brucei assessed as parasite growth inhibition.
Details: not given
It counts as functional, organism-based.
Regarding `CCCCn1cnc2c(Cc3ccc(Cl)c(Cl)c3)nc(C#N)nc21`, the EC50 came to 180 nM.

As for `CCCCn1cnc2c(Cc3ccc(OC)cc3)nc(C#N)nc21`, the EC50 stood at 390 nM.

For the compound `N#Cc1nc(Cc2ccccc2)c2ncn(CC3CCCCO3)c2n1` (stereo not given), the EC50 came out at 240 nM.

For `CCCCn1cnc2c(Cc3cccc(C)c3)nc(C#N)nc21`, the EC50 turned out to be 270 nM.

As for `N#Cc1nc(Cc2ccccc2)c2ncn(Cc3cccc(C(F)(F)F)c3)c2n1`, the half-maximal effective concentration (EC50) was 260 nM.

`N#Cc1nc(Cc2ccc(Cl)c(Cl)c2)c2ncn(CCCO)c2n1`: the EC50 amounted to 110 nM.

Take `COC(CCn1cnc2c(Cc3ccc(Cl)c(Cl)c3)nc(C#N)nc21)OC`: the EC50 was found to be 220 nM.

As for `N#Cc1nc(Cc2ccc(Cl)cc2)c2ncn(CCCO)c2n1`, the half-maximal effective concentration (EC50) worked out at 310 nM.

With `COc1ccc(Cn2cnc3c(Cc4ccc(Cl)cc4)nc(C#N)nc32)cc1`, the half-maximal effective concentration (EC50) amounted to 270 nM.

As to `N#Cc1nc(Cc2ccc(Cl)c(Cl)c2)c2ncn(Cc3ccccc3)c2n1`, the concentration for a half-maximal effect (EC50) worked out at 260 nM.

Regarding `COCCCn1cnc2c(Cc3ccc(Cl)c(Cl)c3)nc(C#N)nc21`, the EC50 was 150 nM.

In the case of `N#Cc1nc(C2CCCCC2)c2ncn(Cc3ccccc3)c2n1`, the 50% effective concentration (EC50) was 330 nM.

As to `N#Cc1nc(Cc2ccc(Cl)cc2)c2ncn(Cc3cccc(C(F)(F)F)c3)c2n1`, the EC50 was 340 nM.

On to `N#Cc1nc(Cc2ccc(Cl)c(Cl)c2)c2ncn(CCCCCO)c2n1`, for which the EC50 was 60 nM.

Another data set relates to Trypanosoma cruzi. In words: Antitrypanosomal activity against Trypanosoma cruzi. Type of data set: functional, organism-based.
Details: not given
For `Cc1nn(C)c2cc(N3CCN(C(=O)[C@@H]4CCCC[C@H]4C(=O)NC4(C#N)CC4)[C@H](C)C3)ccc12`, a half-maximal response (EC50) required 1300 nM.

Consider `N#CC1(NC(=O)[C@H](Cc2ccccc2)N[C@H](c2ccccc2)C(F)(F)F)CC1`, for which the half-maximal effective concentration (EC50) was found to be 120 nM.

The test system of a further data set is Trypanosoma brucei brucei. In words: Antitrypanosomal activity against Trypanosoma brucei brucei assessed as parasite growth inhibition. Type of data set: functional, organism-based.
Details: not given
`O=C(N[C@@H](Cc1ccccc1)C(=O)N[C@H](/C=C/S(=O)(=O)c1ccccc1)CCCCNS(=O)(=O)c1ccc2ccccc2c1)OCc1ccccc1`: the EC50 amounted to 1180 nM.

With `O=C(N[C@@H](Cc1ccccc1)C(=O)N[C@H](/C=C/S(=O)(=O)c1ccccc1)CCCCn1nnc2ccccc21)OCc1ccccc1`, the concentration for a half-maximal effect (EC50) stood at 1880 nM.

In the case of `CCCCCCS(=O)(=O)NCCCC[C@@H](/C=C/S(=O)(=O)c1ccccc1)NC(=O)[C@H](Cc1ccccc1)NC(=O)OCc1ccccc1`, the EC50 was 1220 nM.

For another data set, the system named is Trypanosoma cruzi. In words: Antitrypanosomal activity against Trypanosoma cruzi assessed as inhibition of growth incubated for 4 days by resazurin dye based assay. It counts as functional, organism-based. Particulars: 96 h. A general note: The colour change of resazurin is a common sign of viable cells or microbes.
On to `CC(C)(F)C[C@H](N[C@@H](c1ccc(-c2ccc(S(C)(=O)=O)cc2)cc1)C(F)(F)F)C(=O)NC1(C#N)CC1` [ODANACATIB], for which the EC50 was 2510 nM.

In a further data set the target is T1, Rhodesain. In words: Inhibition of Trypanosoma brucei rhodesiense rhodesain expressed in Pichia pastoris measured for 30 mins using Cbz-Phe-Arg-AMC as substrate.
Details: not given
Turning to `Cc1nc(-c2ccccc2)sc1C(=O)N[C@H](/C=C/S(=O)(=O)c1ccccc1)CCc1ccccc1`, the Ki is 6 nM.

The target of the next data set is Cathepsin S (Homo sapiens, UniProt P25774). Put plainly: Binding affinity to Cathepsin S (unknown origin) assessed as inhibition constant measured after 22 hrs.
Sequence of Cathepsin S (P25774 whole entry): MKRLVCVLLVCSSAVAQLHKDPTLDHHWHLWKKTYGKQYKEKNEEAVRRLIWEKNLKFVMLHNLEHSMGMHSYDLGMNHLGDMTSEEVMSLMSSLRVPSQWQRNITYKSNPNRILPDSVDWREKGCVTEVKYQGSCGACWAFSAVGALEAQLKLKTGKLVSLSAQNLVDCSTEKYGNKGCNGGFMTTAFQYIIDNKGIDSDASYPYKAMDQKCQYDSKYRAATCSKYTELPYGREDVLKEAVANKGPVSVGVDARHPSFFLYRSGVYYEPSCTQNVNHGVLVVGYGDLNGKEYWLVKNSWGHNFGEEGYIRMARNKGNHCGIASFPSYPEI
Details: not given
Turning to `O=C(COc1ccccc1F)NCCc1nc2ccccc2[nH]1`, the inhibition constant Ki was 360 nM.

As to `O=C(COc1ccccc1I)NCCc1nc2ccccc2[nH]1`, the Ki stood at 48 nM.

For the compound `N#Cc1ccccc1OCC(=O)NCCc1nc2ccccc2[nH]1`, the Ki turned out to be 220 nM.

A further data set addresses T2, Cruzipain (Trypanosoma cruzi, UniProt P25779). In words: Binding affinity to Trypanosoma cruzi Cruzain assessed as inhibition constant.
Details: not given
Take `O=C(COc1ccc2ccccc2c1Br)NCCc1nc2ccccc2[nH]1`: the inhibitory constant (Ki) stood at 80 nM.

`N#CCNC(=O)[C@H](Cc1ccccc1)NC(=O)c1cc(Br)ccn1`: the Ki turned out to be 251 nM.

The target of another data set is T2, Cruzipain. In words: Inhibition of Trypanosoma cruzi Cruzain.
Details: not given
Compound `O=C(COCc1ccccc1Br)NCCc1nc2ccccc2[nH]1` displayed a 50% inhibitory concentration (IC50) of 77500 nM.

Compound `Clc1ccc2[nH]c3c(NCCCN4CCOCC4)ncnc3c2c1` gave an IC50 of 2500 nM.
